Results as given in PubChem BioAssay AID1259411 (Chemical Carcinogenesis Research Information System (CCRIS), 2018).
The source made the active and inactive calls. No rule for the calls is given here.

Tested on: rodent carcinogenicity bioassays, tumor incidence
Assay: CCRIS carcinogenicity studies
Details: Dose: 0, Dose: 0
In short: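 Archive of carcinogenicity, mutagenicity, tumor promotion and tumor inhibition results drawn from journals, NCI reports and other sources, expert-reviewed; covers 1985-2011 and is no longer updated.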

Measured: carcinogen call

CCCCCN(C)N=O
active: Species: HAMSTER, Strain/Sex: SYRIAN/FEMALE, Route: GAVAGE, 5.6 MG/KG 1/WK FOR 23-30 WK (TOTAL DOSE: 0; 1.1 MMOL) (STUDY DURATION: LIFETIME), 5.6 MG/KG 1/WK FOR 23-30 WK (TOTAL DOSE: 0; 1.1 MMOL) (STUDY DURATION: LIFETIME), Tumor Site: Type of Lesion: LUNG: ALVEOLAR/BRONCHIAL ADENOMA, NASAL MUCOSA: CARCINOMA, ADENOMA, FORESTOMACH: SQUAMOUS CELL CARCINOMA, SQUAMOUS CELL, Tumor Site: Type of Lesion: LUNG: ALVEOLAR/BRONCHIAL ADENOMA, NASAL MUCOSA: CARCINOMA, ADENOMA, FORESTOMACH: SQUAMOUS CELL CARCINOMA, SQUAMOUS CELL active; positive | Species: HAMSTER, Strain/Sex: SYRIAN/MALE,FEMALE, Route: INTRAPERITONEAL, 70-100 MG/KG ONCE TO ADULT ANIMALS (STUDY DURATION: LIFETIME), Tumor Site: Type of Lesion: ESOPHAGUS: PAPILLOMA OR CARCINOMA active; positive | Species: HAMSTER, Strain/Sex: SYRIAN/MALE,FEMALE, Route: INTRAPERITONEAL, 75 MG/KG 1/WK FOR 6 WK BEGINNING AT 38 DAYS OF AGE (STUDY DURATION: >33 WK), Tumor Site: Type of Lesion: FORESTOMACH: PAPILLOMA, LUNG: ADENOMA, NASAL CAVITY: TUMOR, Tumor Site: Type of Lesion: FORESTOMACH: PAPILLOMA, LUNG: ADENOMA, NASAL CAVITY: TUMOR active; positive | Species: HAMSTER, Strain/Sex: SYRIAN/MALE,FEMALE, Route: INTRAPERITONEAL, 75 MG/KG 1/WK FOR 6 WK TO ADULT ANIMALS (STUDY DURATION: LIFETIME), Tumor Site: Type of Lesion: ESOPHAGUS: PAPILLOMA, FORESTOMACH: PAPILLOMA, LUNG: ADENOMA, NASAL CAVITY: ADENOMA, ADENOCARCINOMA OR SQUAMOUS CARCINOMA, Tumor Site: Type of Lesion: ESOPHAGUS: PAPILLOMA, FORESTOMACH: PAPILLOMA, LUNG: ADENOMA, NASAL CAVITY: ADENOMA, ADENOCARCINOMA OR SQUAMOUS CARCINOMA active; positive | Species: HAMSTER, Strain/Sex: SYRIAN/MALE, Route: GAVAGE, 5.6 MG/KG 1/WK FOR 23-30 WK (TOTAL DOSE: 0; 1.1 MMOL) (STUDY DURATION: LIFETIME), 5.6 MG/KG 1/WK FOR 23-30 WK (TOTAL DOSE: 0; 1.1 MMOL) (STUDY DURATION: LIFETIME), Tumor Site: Type of Lesion: LIVER: HEPATOCELLULAR ADENOMA, HEMANGIOSARCOMA, LUNG: ALVEOLAR/BRONCHIAL ADENOMA, NASAL MUCOSA: CARCINOMA, FORESTOMACH:, Tumor Site: Type of Lesion: LIVER: HEPATOCELLULAR ADENOMA, HEMANGIOSARCOMA, LUNG: ALVEOLAR/BRONCHIAL ADENOMA, NASAL MUCOSA: CARCINOMA, FORESTOMACH: active; positive | Species: MOUSE, Strain/Sex: 101/N/MALE, FEMALE, Route: ORAL, 0.0015% IN DRINKING WATER FOR 8 WK (STUDY DURATION: 24 WK), Tumor Site: Type of Lesion: ESOPHAGUS: TUMOR active; positive | Species: MOUSE, Strain/Sex: BXH-8/MALE, FEMALE, Route: ORAL, 0.0015% IN DRINKING WATER FOR 8 WK (STUDY DURATION: 24 WK), Tumor Site: Type of Lesion: ESOPHAGUS: TUMOR active; positive | Species: MOUSE, Strain/Sex: C57BL/MALE,FEMALE, Route: ORAL, 0.0015% IN DRINKING WATER FOR 8 WK (STUDY DURATION: 24 WK), Tumor Site: Type of Lesion: ESOPHAGUS:TUMOR active; positive | Species: MOUSE, Strain/Sex: STX/LE/MALE,FEMALE, Route: ORAL, 0.0015% IN DRINKING WATER FOR 8 WK (STUDY DURATION: 24 WK), Tumor Site: Type of Lesion: ESOPHAGUS: TUMOR active; positive | Species: MOUSE, Strain/Sex: SWISS/MALE,FEMALE, Route: INTRAPERITONEAL, 15 MG/KG 1/WK FOR 3 WK BEGINNING AT 38 DAYS OF AGE (STUDY DURATION: >79 WK), Tumor Site: Type of Lesion: ESOPHAGUS: PAPILLOMA, LUNG: ADENOMA active; positive | Species: MOUSE, Strain/Sex: SWISS/MALE,FEMALE, Route: INTRAPERITONEAL, 15 MG/KG 1/WK FOR 3 WK TO ADULT ANIMALS (STUDY DURATION: LIFETIME), Tumor Site: Type of Lesion: ESOPHAGUS: PAPILLOMA, LUNG: ADENOMA active; positive | Species: RAT, Strain/Sex: WISTAR/MALE,FEMALE, Route: INTRAPERITONEAL, 50-70 MG/KG ONCE TO ADULT ANIMALS (STUDY DURATION: LIFETIME), Tumor Site: Type of Lesion: ESOPHAGUS: PAPILLOMA, CARCINOMA active; positive | Species: RAT, Strain/Sex: WISTAR/MALE,FEMALE, Route: INTRAPERITONEAL, 50 MG/KG (7 FEMALE RATS), 60 MG/KG (2 FEMALE RATS), 70 MG/KG (10 MALE RATS) ONCE AT 42-50 DAYS OF AGE (STUDY DURATION, 50 MG/KG (7 FEMALE RATS), 60 MG/KG (2 FEMALE RATS), 70 MG/KG (10 MALE RATS) ONCE AT 42-50 DAYS OF AGE (STUDY DURATION, Tumor Site: Type of Lesion: ESOPHAGUS: CARCINOMA active; positive
inactive: Species: HAMSTER, Strain/Sex: SYRIAN/MALE,FEMALE, Route: INTRAPERITONEAL, 3, 6 MG/KG ONCE ON DAYS 1 AND 3 OF AGE, RESPECTIVELY (STUDY DURATION: >75 WK), 3, 6 MG/KG ONCE ON DAYS 1 AND 3 OF AGE, RESPECTIVELY (STUDY DURATION: >75 WK) inactive; negative | Species: HAMSTER, Strain/Sex: SYRIAN/MALE,FEMALE, Route: INTRAPERITONEAL, 3 MG/KG ONCE TO NEWBORN ANIMALS (STUDY DURATION: LIFETIME) inactive; negative | Species: HAMSTER, Strain/Sex: SYRIAN/MALE,FEMALE, Route: INTRAPERITONEAL, 6 MG/KG ONCE TO 3 D-OLD ANIMALS (STUDY DURATION: LIFETIME) inactive; negative | Species: HAMSTER, Strain/Sex: SYRIAN/MALE,FEMALE, Route: INTRAPERITONEAL, 70 MG/KG (3 MALE HAMSTERS), 100 MG/KG (11 FEMALE HAMSTERS) ONCE AT 46-49 DAYS OF AGE (STUDY DURATION: >43 WK), 70 MG/KG (3 MALE HAMSTERS), 100 MG/KG (11 FEMALE HAMSTERS) ONCE AT 46-49 DAYS OF AGE (STUDY DURATION: >43 WK) inactive; negative | Species: RAT, Strain/Sex: WISTAR/MALE,FEMALE, Route: INTRAPERITONEAL, 6, 12.5 MG/KG ONCE AT 1 AND 3 DAYS OF AGE, RESPECTIVELY (STUDY DURATION: >82 WK), 6, 12.5 MG/KG ONCE AT 1 AND 3 DAYS OF AGE, RESPECTIVELY (STUDY DURATION: >82 WK) inactive; negative | Species: RAT, Strain/Sex: WISTAR/MALE,FEMALE, Route: INTRAPERITONEAL, 6 MG/KG ONCE TO NEWBORN ANIMALS (STUDY DURATION: LIFETIME) inactive; negative | Species: RAT, Strain/Sex: WISTAR/MALE,FEMALE, Route: INTRAPERITONEAL, 12.5 MG/KG ONCE TO 3 D-OLD ANIMALS (STUDY DURATION: LIFETIME) inactive; negative

CCNC(=O)N(C=O)CCN(C)C
active: Species: RAT, Strain/Sex: F344/FEMALE, Route: INTRAGASTRIC, 25 MG/ML CORN OIL/ETHYL ACETATE (2:1) SOLUTION ADMINISTERED AS 0.2 ML 2/WK FOR 37 WK (STUDY DURATION: 102 WK), Tumor Site: Type of Lesion: NASAL CAVITY: ADENOMA active; positive
inactive: Species: RAT, Strain/Sex: F344/MALE, Route: INTRAGASTRIC, 25 MG/ML CORN OIL/ETHYL ACETATE (2:1) SOLUTION ADMINISTERED AS 0.2 ML 2/WK FOR 37 WK (STUDY DURATION: 102 WK) inactive; negative
